Results on one compound are retold here after US20080182848A1, “Novel Process” (priority 2005, published 2008).

Molecules are shown by their SMILES.

The series can be described thus: solubility in the mobile phase (isopropanol). Format: physicochemical. The following applies: organic solvent or mixture; crude material; isopropanol as the mobile phase. As to the method:
Racemic zopiclone was subjected to preparative chromatography using Chiralcel® OD as the stationery phase and isopropanol as the mobile phase. Under these conditions the crude material has a good solubility in the mobile phase (>1.0 g/liter) and the typical retention time for the R-isomer is 12.3 minutes and for the S-isomer is 17.8 minutes. Some physico-chemical properties of the S-zopiclone obtained are set out in table 1.

The term solubility denotes the dissolved amount per volume that the medium holds. For the compound `CN1CCN(C(=O)OC2c3nccnc3C(=O)N2c2ccc(Cl)cn2)CC1` (racemic) [Racemic zopiclone, (±) of 6-(5-chloro-2-pyridinyl)-6,7-dihydro-7-oxo-5H-pyrrolo-[3,4b]-pyrazin-5-yl-4-methylpiperazine-1-caboxylate], the solubility is > 1000 µg/mL.
